# From US8859512B2, “Anti-viral pyrimidine nucleoside derivatives” (University College Cardiff Consultants Limited, priority 2006, dated 2014)
# Several values for one entry are separate records, joined by “and”; a condition that tells them apart may be missing. Equal values may be shown once. Entries after “also recorded” stand apart in the source; their conditions may differ.
# Legend:
# [1] = Pilot oral pharmacokinetic study in female mice, plasma Compound 1 by HPLC with fluorescence detection; type: in vivo; details: single oral gavage 31.25 mg/kg vs Compound 1 25 mg/kg
# [2] = test system: thymidine-kinase deficient Oka VZV strain in HEL cells; assay: Viral plaque formation reduction in HEL cells inoculated with VZV Oka strain; type: cell-based, Varicella Zoster virus; details: for antiviral activity (in words): in vitro
structure (smiles),measurement,setting,value
CCCCCc1ccc(-c2cc3cn(C4CC(O)C(COC(=O)C(N)C(C)C)O4)c(=O)nc3o2)cc1 (stereo not shown) [Compound 5],plasma concentrations of Compound 1 compared to mice receiving Compound 1 (in words),[1],much higher
same,EC50,"[2]; Human alphaherpesvirus 3, HEL, read-out: EC50 in VZV OKA",16 nM and 0.008 µg/mL
same,antiviral activity (in words),[2],active; also recorded: comparable in vitro antiviral activity to Compound 1
CCCCCc1ccc(-c2cc3cn(C4CC(O)C(COC(=O)C(N)C(C)C)O4)c(=O)nc3o2)cc1.Cl (stereo not shown) [Compound 6],antiviral activity (in words),[2],active
